Data: US20260297080A1, “BICYCLIC COMPOUNDS AS CDK INHIBITORS” (BeOne Medicines I GmbH, priority 2022, published 2026)

What was measured:
CDK1/Cyclin B1 = CDK1/Cyclin B1 (Homo sapiens, UniProt P06493); experiment: CDK1/Cyclin B1 Biochemical Assay (TR-FRET), 0.015 mM ATP; settings: 0.15 μM Rb (Ser780)-biotin substrate, pH7.0, 60 min preincubation, 120 min reaction, room temperature
In short: (§1)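 Percent inhibition was derived from the 665 nm/620 nm TR-FRET ratio after a 120-minute room-temperature reaction on 0.15 μM Rb (Ser780)-biotin, preceded by 60-minute enzyme–compound preincubation. IC50 came from four-parameter logistic fitting.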

CDK2/Cyclin E1 = CDK2/Cyclin E1 (Homo sapiens, UniProt P24941); experiment: CDK2/Cyclin E1 Biochemical Assay (TR-FRET), 0.060 mM ATP; settings: 0.15 μM Rb (Ser780)-biotin substrate, pH7.0, 60 min preincubation, 120 min reaction, room temperature
In short: as §1

CDK1/Cyclin B1, sequence (P06493 whole entry): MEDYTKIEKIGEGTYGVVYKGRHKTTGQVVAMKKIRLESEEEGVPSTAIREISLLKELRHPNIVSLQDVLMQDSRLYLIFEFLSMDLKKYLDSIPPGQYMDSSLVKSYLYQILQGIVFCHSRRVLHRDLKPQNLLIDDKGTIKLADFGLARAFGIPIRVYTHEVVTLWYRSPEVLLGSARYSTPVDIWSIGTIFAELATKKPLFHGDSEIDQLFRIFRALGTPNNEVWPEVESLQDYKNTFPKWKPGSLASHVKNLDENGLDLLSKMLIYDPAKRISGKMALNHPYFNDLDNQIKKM
CDK1/Cyclin B1, sequence (P14635 whole entry partner): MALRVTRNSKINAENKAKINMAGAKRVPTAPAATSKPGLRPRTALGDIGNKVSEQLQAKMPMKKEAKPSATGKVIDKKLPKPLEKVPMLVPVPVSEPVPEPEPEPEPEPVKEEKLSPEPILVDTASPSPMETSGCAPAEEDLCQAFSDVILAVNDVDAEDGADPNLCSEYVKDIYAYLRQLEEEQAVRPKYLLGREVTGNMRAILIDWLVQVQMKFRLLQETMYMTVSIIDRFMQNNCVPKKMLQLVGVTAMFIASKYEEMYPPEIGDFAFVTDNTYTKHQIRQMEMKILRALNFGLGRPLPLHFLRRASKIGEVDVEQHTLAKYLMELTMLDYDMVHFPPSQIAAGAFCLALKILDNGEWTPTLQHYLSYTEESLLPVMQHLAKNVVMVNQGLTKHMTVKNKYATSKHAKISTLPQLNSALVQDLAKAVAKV

| Structure (SMILES) | IC50 (CDK1/Cyclin B1) [nM] | IC50 (CDK2/Cyclin E1) [nM] |
| --- | --- | --- |
| CCCNC(=O)O[C@H]1CC[C@@H](c2cc(Nc3ccc4c(c3F)CNS4(=O)=O)n[nH]2)C1 (single isomer, unassigned) [Example 138b] | 60 | 1.5 |
| CC[C@H](C)NC(=O)O[C@H]1CC[C@@H](c2cc(Nc3ccc4c(c3F)CNS4(=O)=O)n[nH]2)C1 (single isomer, unassigned) [Example 139a] | 223 | 1.2 |
| CC[C@H](C)NC(=O)O[C@H]1CC[C@@H](c2cc(Nc3ccc4c(c3F)CNS4(=O)=O)n[nH]2)C1 (single isomer, unassigned) [Example 139b] | 52 | 0.9 |
| O=C(NC1CCC(O)CC1)O[C@H]1CC[C@@H](c2cc(Nc3ccc4c(c3F)CNS4(=O)=O)n[nH]2)C1 (single isomer, unassigned) [Example 142, cis-3-(3-((4-fluoro-1,1-dioxido-2,3-dihydrobenzo[d]isothiazol-5-yl)amino)-1H-pyrazol-5-yl)cyclopentyl(4-hydroxycyclohexyl)carbamate] | 46 | 1.2 |
| O=C(NC1CCC(O)CC1)O[C@H]1CC[C@@H](c2cc(Nc3ccc4c(c3F)CNS4(=O)=O)n[nH]2)C1 (single isomer, unassigned) [Example 143, cis-3-(3-((4-fluoro-1,1-dioxido-2,3-dihydrobenzo[d]isothiazol-5-yl)amino)-1H-pyrazol-5-yl)cyclopentyl(4-hydroxycyclohexyl)carbamate] | 242 | 4.9 |
| O=C(NCCC(F)(F)F)O[C@H]1CC[C@@H](c2cc(Nc3ccc4c(c3F)CNS4(=O)=O)n[nH]2)C1 (single isomer, unassigned) [Example 154a, cis-3-(3-((4-fluoro-1,1-dioxido-2,3-dihydrobenzo[d]isothiazol-5-yl)amino)-1H-pyrazol-5-yl)cyclopentyl(3,3,3-trifluoropropyl)carbamate] | 187 | 2.3 |
| O=C(NCCC(F)(F)F)O[C@H]1CC[C@@H](c2cc(Nc3ccc4c(c3F)CNS4(=O)=O)n[nH]2)C1 (single isomer, unassigned) [Example 154b, cis-3-(3-((4-fluoro-1,1-dioxido-2,3-dihydrobenzo[d]isothiazol-5-yl)amino)-1H-pyrazol-5-yl)cyclopentyl(3,3,3-trifluoropropyl)carbamate] | 69 | 3.5 |

The remaining lines, values ahead:

| IC50 (CDK1/Cyclin B1) [nM] | IC50 (CDK2/Cyclin E1) [nM] | Structure (SMILES) |
| --- | --- | --- |
| 97 | 1.1 | CC1(NC(=O)O[C@H]2CC[C@@H](c3cc(Nc4ccc5c(c4F)CNS5(=O)=O)n[nH]3)C2)CC1 (single isomer, unassigned) [Example 140a, cis-3-(3-((4-fluoro-1,1-dioxido-2,3-dihydrobenzo[d]isothiazol-5-yl)amino)-1H-pyrazol-5-yl)cyclopentyl(1-methylcyclopropyl)carbamate] |
| 38 | 1.4 | CC1(NC(=O)O[C@H]2CC[C@@H](c3cc(Nc4ccc5c(c4F)CNS5(=O)=O)n[nH]3)C2)CC1 (single isomer, unassigned) [Example 140b, cis-3-(3-((4-fluoro-1,1-dioxido-2,3-dihydrobenzo[d]isothiazol-5-yl)amino)-1H-pyrazol-5-yl)cyclopentyl(1-methylcyclopropyl)carbamate] |
| 799 | 5.3 | COCC1(NC(=O)O[C@H]2CC[C@@H](c3cc(Nc4ccc5c(c4F)CNS5(=O)=O)n[nH]3)C2)CC1 (single isomer, unassigned) [Example 158a, cis-3-(3-((4-fluoro-1,1-dioxido-2,3-dihydrobenzo[d]isothiazol-5-yl)amino)-1H-pyrazol-5-yl)cyclopentyl(1-(methoxymethyl)cyclopropyl)carbamate] |
| 248 | 3.3 | COCC1(NC(=O)O[C@H]2CC[C@@H](c3cc(Nc4ccc5c(c4F)CNS5(=O)=O)n[nH]3)C2)CC1 (single isomer, unassigned) [Example 158b, cis-3-(3-((4-fluoro-1,1-dioxido-2,3-dihydrobenzo[d]isothiazol-5-yl)amino)-1H-pyrazol-5-yl)cyclopentyl(1-(methoxymethyl)cyclopropyl)carbamate] |
